Source: paper PMC6934184, “Selective DNA-PKcs inhibition extends the therapeutic index of localized radiotherapy and chemotherapy” (The Journal of Clinical Investigation, 2019)

Biological target: T1, PRKCZ (PKC zeta) (Homo sapiens, UniProt Q05513)
T1 construct: purchased Thermo Fisher Scientific (Life Technologies) SelectScreen
Test: SelectScreen Z'LYTE
Format: biochemical
Outline: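 NU5455 was profiled across the SelectScreen Broad panel of kinase activity and binding assays. Z'LYTE reactions such as CSF1R ran at apparent Km ATP, while the Adapta CAMK1 assay used ATP listed as 10. Values are given as percent.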

T1 sequence (Q05513 whole entry): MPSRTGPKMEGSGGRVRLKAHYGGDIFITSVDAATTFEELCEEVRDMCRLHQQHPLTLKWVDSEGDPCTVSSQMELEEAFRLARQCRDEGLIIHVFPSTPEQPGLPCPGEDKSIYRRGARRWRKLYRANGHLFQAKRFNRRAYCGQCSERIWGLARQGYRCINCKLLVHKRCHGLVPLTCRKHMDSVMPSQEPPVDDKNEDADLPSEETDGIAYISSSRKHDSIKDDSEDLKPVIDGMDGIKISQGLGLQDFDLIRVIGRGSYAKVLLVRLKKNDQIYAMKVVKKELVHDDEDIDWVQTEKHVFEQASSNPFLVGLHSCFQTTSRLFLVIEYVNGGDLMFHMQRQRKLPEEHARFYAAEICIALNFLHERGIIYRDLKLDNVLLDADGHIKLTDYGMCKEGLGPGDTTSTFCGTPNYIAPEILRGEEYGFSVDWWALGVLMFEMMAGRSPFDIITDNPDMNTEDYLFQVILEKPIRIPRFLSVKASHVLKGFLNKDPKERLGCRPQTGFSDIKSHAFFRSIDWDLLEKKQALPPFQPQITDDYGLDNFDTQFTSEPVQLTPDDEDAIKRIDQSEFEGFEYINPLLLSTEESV

## CN(C(=O)CN1CCOCC1)c1ccc2sc3c(-c4cccc5c(=O)cc(N6CC7CCC(C6)O7)oc45)cccc3c2c1 [NU5455]
  inhibition at 1 µM: 4.7%
